From patent US7006929B2, “Signal detecting sensor provided with multi-electrode” (Matsushita Electric Industrial Co., Ltd., priority 2001, dated 2006)

Tested on: artificially reconstructed neural cell network (rat cerebral cortex neurons)
Assay: stimulus transmission in reconstructed neural cell network on 64-electrode sensor
Format: cell-based
Details: 40 μM, treated for 10 minutes; constant voltage stimulus at one electrode (row 5, column 5)
Procedure: Neurons were prepared from the cerebral cortex of gestation day 17 rat embryos and were suspended in Dulbecco's modified medium, and were dispensed into each container of a sensor comprising 64 electrodes and containers as shown in FIG. 3 at a concentration of 5×10^5 cells/ml, followed by culturing for two weeks. As a result, an artificial neural cell network was reconstructed on the sensor. The sensor containing the reconstructed neural cell network was used as follows. An apparatus having the configuration of FIG. […] The transmission of the stimulus was measured by detecting cell potentials at the remaining 63 electrodes. […] A neural cell network reconstructed as in Examples 1 and 2 was treated with 40 μM DNQX (6,7-Dinitroquinoxaline-2,3(1H,4H)-dione) for 10 minutes. As in Example 2, a constant voltage stimulus was applied to a cell on a sensor. The transmission of the stimulus was measured by detecting cell potentials at the remaining 63 electrodes.

Compound: O=c1[nH]c2cc([N+](=O)[O-])c([N+](=O)[O-])cc2[nH]c1=O [DNQX, 6,7-Dinitroquinoxaline-2,3(1H,4H)-dione]
- response (cell potentials) at the remaining 63 electrodes to constant voltage stimulus: a response was not observed at any of the electrodes
